The values below come from patent US20260165321A1, “FUMIGANT COMPOSITION FOR PEST CONTROL” (priority 2020, published 2026).

Assay type in all cases: in vivo
Experiment [1] has as its system rice weevil (Sitophilus oryzae). Particulars: adult rice weevil, fumigation 2 hours, about 24° C., 1-liter container. From the text: (§1) The poisoning ability index used in the following examples is the internationally commonly used median lethal concentration (LC50), which refers to a dosage required to kill 50% of a group of tested insects. The main test method is to include a number of tested insect (adults or larvae) and the examined chemical at a wide range of dosage in a 1-liter airtight transparent containers for a period of time. Afterward, the airtight containers were opened for ventilation, and the dead insects in the containers were counted. The linear regression between the mortality, expressed as probability unit, and the log dosage was analyzed using the software Priprobit v1.63, from which the value of LC50 could be obtained.
Put 30 adult insects of rice weevil (Sitophilus oryzae) into each of a group of 1-liter transparent containers, on which the name of tested chemical and the predetermined dosage are marked. Wherein, the chemicals to be tested include 2,5-dimethylfuran, 2,5-dimethylthiophene, 2-methylfuran, 2-methylthiophene, 2-ethylfuran and 2-ethylthiophene. The airtight containers, which contain the insect and chemical, are left at room temperature of about 24° C. for 2 hours. Afterward, the containers are opened for ventilation, and the dead rice weevils (Sitophilus oryzae) in each of the containers are counted. The linear regression between mortality and log dosage is analyzed using the software Priprobit v1.63, from which the lethal concentrations 50% (LC50) and 95% (LC95) are calculated.

The test system of experiment [2] is diamondback moth (Plutella xylostella). The experiment in a line: Fumigant toxicity test (1), 2 h in 1-liter airtight container. Particulars: fumigation 2 hours, ~24° C., 30 insects, doses 0-180 mg/dm^3.
From the text: as §1
(§2) Take several 1-liter airtight transparent containers marked with different doses of 2,5-dimethylfuran, then put 30 insects into each of the transparent containers and add 2,5-dimethylfuran with marked doses (0, 18, 45, 90, 180 mg/dm^3), respectively, into each of the transparent containers. Place the containers at room temperature (˜24° C.) for 2 hours, and then quantitate the dead insects in each of the transparent containers. Wherein, the insects used include German cockroach (Blattella germanica), green peach aphid (Myzus persicae), brown planthopper (Nilaparvata lugens), diamondback moth (Plutella xylostella), rice weevil (Sitophilus oryzae), lesser grain borer (Rhyzopertha dominica), and sweet potato weevil (Cylas formicarius).

Experiment [3] relates to green peach aphid (Myzus persicae). The experiment is described as above. Particulars: fumigation 2 hours, ~24° C., 30 insects, doses 0-180 mg/dm^3.
From the text: as §1, §2

For experiment [4], the system named is German cockroach (Blattella germanica). The experiment is described as above. Conditions: fumigation 2 hours, ~24° C., 30 insects, doses 0-180 mg/dm^3.
From the text: as §1, §2

Experiment [5] has as its system brown planthopper (Nilaparvata lugens). The description is as above. Conditions: fumigation 2 hours, ~24° C., 30 insects, doses 0-180 mg/dm^3.
From the text: as §1, §2

Experiment [6] concerns lesser grain borer (Rhyzopertha dominica). The description is as above. Particulars: fumigation 2 hours, ~24° C., 30 insects, doses 0-180 mg/dm^3.
From the text: as §1, §2

Experiment [7] deals with rice weevil (Sitophilus oryzae). The experiment is described as above. Particulars: fumigation 2 hours, ~24° C., 30 insects, doses 0-180 mg/dm^3.
From the text: as §1, §2

≈ marks a conversion by molar mass, not a printed value.

`Cc1ccc(C)o1` [2,5-dimethylfuran]: the “LC95 [95% CI]” value in experiment [1] amounted to 111.6 µg/mL (≈ 1160 µM). Besides, the “administered dosage required to kill all the tested individuals” value in experiment [2], in experiment [4], in experiment [5] and in experiment [7] was 90 mg/L throughout. The “administered dosage enough to kill all the tested individuals” value in experiment [3] and in experiment [6] was 18 mg/L throughout.

Turning to `Cc1cccs1` [2-methylthiophene], the “LC95 [95% CI]” value in experiment [1] came to 54.6 µg/mL (≈ 556 µM).

With `CCc1ccco1` [2-ethylfuran], the “LC95 [95% CI]” value in experiment [1] is 146.5 µg/mL (≈ 1520 µM).

`CCc1cccs1` [2-ethylthiophene]: the “LC95 [95% CI]” value in experiment [1] was found to be 20.6 µg/mL (≈ 184 µM).

As for `Cc1ccc(C)s1` [2,5-dimethylthiophene], the “LC95 [95% CI]” value in experiment [1] was determined as 135.3 µg/mL (≈ 1210 µM).

For the compound `Cc1ccco1` [2-methylfuran], the “LC95 [95% CI]” value in experiment [1] worked out at 329.7 µg/mL (≈ 4020 µM).
